In publication PMC3124622 (Biochemical and biophysical research communications, 2011):
pKi: −log10 of the molar value. Entries after “also recorded” stand apart in the source; their conditions may differ. Like-named read-outs stand apart in the source and are kept apart here.

What was measured:
[1] = molecular target: E. coli TGT Wild-Type (Escherichia coli, UniProt P0A847); assay: Pteridine inhibition of guanine incorporation; assay type: biochemical
[2] = molecular target: T1, human TGT (Homo sapiens, UniProt Q9BXR0); assay: Biopterin inhibition of human TGT; assay type: biochemical
[3] = test system: Wild-type and Mutant E. coli TGTs; assay: Pteridine inhibition of wild-type and mutant E. coli TGTs; assay type: biochemical; conditions: the mutant enzymes
[4] = molecular target: TGT from mouse fibroblasts; conditions: cited from earlier work
[5] = test system: TGT from rabbit reticulocytes; conditions: cited from earlier work
[6] = test system: E. coli TGT (C145V/T146V/V217G); assay: Queuine incorporation by the E. coli TGT triple mutant; assay type: biochemical; conditions: queuine concentrations up to 50 μM (data not shown)
[7] = molecular target: T1, human TGT; conditions: queuine as substrate, ref Chen et al. (2011) Nuc. Acids Res. 39, 2834; cited from earlier work
[8] = molecular target: E. coli TGT V217G (Escherichia coli, UniProt P0A847, V217G); assay: Pteridine inhibition of guanine incorporation; assay type: biochemical; conditions: V217G mutant; vs guanine; 20 μM tRNA, pH 7.3
[9] = molecular target: E. coli TGT C145V/T146V (Escherichia coli, UniProt P0A847, C145V/T146V); assay: Pteridine inhibition of guanine incorporation; assay type: biochemical; conditions: C145V/T146V mutant; vs guanine; 20 μM tRNA, pH 7.3
[10] = molecular target: E. coli TGT C145V/T146V/V217G (Escherichia coli, UniProt P0A847, C145V/T146V/V217G); assay: Pteridine inhibition of guanine incorporation; assay type: biochemical; conditions: C145V/T146V/V217G (triple) mutant; vs guanine; 20 μM tRNA, pH 7.3
[11] = molecular target: E. coli TGT C145V/T146V/P147N/V217G (Escherichia coli, UniProt P0A847, C145V/P147N/T146V/V217G); assay: Pteridine inhibition of guanine incorporation; assay type: biochemical; conditions: C145V/T146V/P147N/V217G (quadruple) mutant; vs guanine; 20 μM tRNA, pH 7.3

T1 sequence (Q9BXR0 whole entry): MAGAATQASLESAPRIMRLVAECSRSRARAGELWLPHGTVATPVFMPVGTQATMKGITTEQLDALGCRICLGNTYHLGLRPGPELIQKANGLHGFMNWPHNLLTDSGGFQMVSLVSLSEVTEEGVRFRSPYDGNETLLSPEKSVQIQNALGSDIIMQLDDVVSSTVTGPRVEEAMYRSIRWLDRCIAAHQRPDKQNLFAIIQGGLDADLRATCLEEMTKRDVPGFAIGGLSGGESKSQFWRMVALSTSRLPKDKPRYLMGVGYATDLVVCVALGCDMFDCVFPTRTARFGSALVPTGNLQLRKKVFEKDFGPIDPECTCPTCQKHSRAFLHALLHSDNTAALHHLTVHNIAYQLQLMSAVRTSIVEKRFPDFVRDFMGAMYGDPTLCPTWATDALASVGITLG
T1 sequence (Q9H974 whole entry partner): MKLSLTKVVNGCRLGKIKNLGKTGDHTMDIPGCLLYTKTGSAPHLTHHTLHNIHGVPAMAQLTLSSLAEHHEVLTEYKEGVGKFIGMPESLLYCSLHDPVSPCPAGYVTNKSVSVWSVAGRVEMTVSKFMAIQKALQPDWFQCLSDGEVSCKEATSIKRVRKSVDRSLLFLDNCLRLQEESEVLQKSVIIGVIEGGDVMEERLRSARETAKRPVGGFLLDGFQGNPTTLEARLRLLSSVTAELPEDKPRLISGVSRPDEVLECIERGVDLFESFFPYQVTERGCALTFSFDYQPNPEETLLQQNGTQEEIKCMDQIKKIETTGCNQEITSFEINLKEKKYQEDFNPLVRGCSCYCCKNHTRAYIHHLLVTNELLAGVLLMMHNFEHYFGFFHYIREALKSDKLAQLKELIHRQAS

biopterin
inhibition of wild-type TGT ([1]; biopterin concentrations up to 3 mM): no detectable inhibition | Ki relative to the KM for queuine [2]: ca. 30 fold | mode of inhibition ([2]; with respect to queuine, Dixon and Cornish-Bowden plots): competitive inhibitor | inhibition (in words) [3]: inhibited | pKi [4]: ~6.00 | inhibition ([5]; 20 μM biopterin, rabbit reticulocyte enzyme): 39%

Nc1nc2[nH]cc(CN[C@H]3C=C[C@H](O)[C@@H]3O)c2c(=O)[nH]1 [Queuine, queuine]
incorporation of queuine as a substrate [6]: does not recognize; also recorded: no incorporation | Km [7]: 0.26 µM | kcat [7]: 8.2 (±0.2) 10^−3•s^−1

Nc1nc2nccnc2c(=O)[nH]1 [Pterin, pterin]
inhibition (in words) ([1]; wild-type enzyme): inhibited | pKi ([1]; wild-type enzyme, vs guanine, 20 μM tRNA, pH 7.3): 6.38 | pKi [8]: 6.05 | pKi [9]: 5.66 | pKi [10]: 5.89 | pKi [11]: 4.43 | inhibition (in words) [3]: inhibited | inhibition ([5]; 0.48 μM pterin, rabbit reticulocyte TGT): 44%
